Reference: patent US9593118B2, “Xanthine-substituted alkynyl carbamates/reverse carbamates as A2B antagonists” (Lewis and Clark Pharmaceuticals, Inc., priority 2015, dated 2017)

These compounds were tested against T1, A2B adenosine receptor (Homo sapiens, UniProt P29275) (assay: A2B antagonist cAMP assay (inhibition of the NECA response, HTRF)). Conditions: test compound at 1×10^−7M; percent inhibition of the control response to 1 μM NECA (cAMP).
T1 construct: An endogenous A2B adenosine receptor coupled to cyclic AMP generation in human embryonic kidney (HEK-293) cells; endogenous in cells
T1 sequence (P29275 1-332): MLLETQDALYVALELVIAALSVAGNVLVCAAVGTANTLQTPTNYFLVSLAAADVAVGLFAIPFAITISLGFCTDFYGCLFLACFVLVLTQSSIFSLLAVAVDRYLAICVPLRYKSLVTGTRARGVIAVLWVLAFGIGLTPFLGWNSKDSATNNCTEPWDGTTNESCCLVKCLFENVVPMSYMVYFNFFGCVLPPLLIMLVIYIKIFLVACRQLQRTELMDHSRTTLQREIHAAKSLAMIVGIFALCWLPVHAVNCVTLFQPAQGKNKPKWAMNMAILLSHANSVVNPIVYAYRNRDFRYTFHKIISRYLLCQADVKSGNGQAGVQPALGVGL
Format: cell-based
Method: Representative compounds of the present invention have been tested for their activity as A2B antagonists and shown to be active. These values were obtained by using the following methodology.
The cells are suspended in HBSS buffer (Invitrogen) complemented with 20 mM HEPES (pH 7.4), then distributed in microplates at a density of 5×10^3 cells/well and preincubated for 5 min at room temperature in the presence of HBSS (basal control), the test compound or the reference antagonist. Thereafter, the reference agonist NECA is added at a final concentration of 1 μM. […] Following 10 min incubation at 37° C., the cells are lysed and the fluorescence acceptor (D2-labeled cAMP) and fluorescence donor (anti-cAMP antibody labeled with europium cryptate) are added. After 60 min at room temperature, the fluorescence transfer is measured at λex=337 nm and λem=620 and 665 nm using a microplate reader (Rubystar, BMG). The cAMP concentration is determined by dividing the signal measured at 665 nm by that measured at 620 nm (ratio). The results are expressed as a percent inhibition of the control response to 1 μM NECA. The standard reference antagonist is XAC, which is tested in each experiment at several concentrations to generate a concentration-response curve from which its IC50 value is calculated.
Reference: Cooper, J., Hill, S. J., and Alexander, S. P. H. (1997), An endogenous A2B adenosine receptor coupled to cyclic AMP generation in human embryonic kidney (HEK-293) cells, Brit. J. Pharmacol., 122: 546.

Compound | inhibition at 0.1 µM
CN(CC#Cc1nc2c([nH]1)c(=O)n(C1CC1)c(=O)n2C1CC1)C(=O)Oc1ccccc1 [Example 3, 1,3-Dicyclopropyl-8-(3-(methyl(phenoxycarbonyl)amino)prop-1-yn-1-yl)xanthine] | > 5%
CN(CC#Cc1nc2c([nH]1)c(=O)n(C1CC1)c(=O)n2C1CC1)C(=O)Oc1ccccc1Cl [Example 6, 8-(3-(((2-Chlorophenoxy)carbonyl)(methyl)amino)prop-1-yn-1-yl)-1,3-dicyclopropylxanthine] | > 5%
CN(C(=O)OCC#Cc1nc2c([nH]1)c(=O)n(C1CC1)c(=O)n2C1CC1)c1ccc(Cl)cc1 [Example 8, 8-(3-(((4-Chlorophenyl)(methyl)carbamoyl)oxy)prop-1-yn-1-yl)-1,3-dicyclopropylxanthine] | > 20%
CN(CC#Cc1nc2c([nH]1)c(=O)n(C1CC1)c(=O)n2C1CC1)C(=O)Oc1ccc(F)cc1 [Example 1, 1,3-Dicyclopropyl-8-(3-(methyl((4-fluorophenoxy)carbonyl)amino)prop-1-yn-1-yl)xanthine] | > 20%
CN(CC#Cc1nc2c([nH]1)c(=O)n(C1CC1)c(=O)n2C1CC1)C(=O)Oc1cccc(C(F)(F)F)c1 [Example 4, 1,3-Dicyclopropyl-8-(3-(methyl((3-(trifluoromethyl)phenoxy)carbonyl)-amino)prop-1-yn-1-yl)xanthine] | > 5%
COc1ccccc1OC(=O)N(C)CC#Cc1nc2c([nH]1)c(=O)n(C1CC1)c(=O)n2C1CC1 [Example 5, 1,3-Dicyclopropyl-8-(3-(methyl((2-methoxyphenoxy)carbonyl)amino)prop-1-yn-1-yl)xanthine] | > 5%
CCCn1c(=O)n(C2CC2)c(=O)c2[nH]c(C#CCN(C)C(=O)Oc3ccc(F)cc3)nc21 [Example 2, 1-Cyclopropyl-3-propyl-8-(3-(methyl((4-fluorophenoxy)carbonyl)amino)prop-1-yn-1-yl)xanthine] | > 20%
CN(C(=O)OCC#Cc1nc2c([nH]1)c(=O)n(C1CC1)c(=O)n2C1CC1)c1ccccc1 [Example 7, 1,3-Dicyclopropyl-8-(3-((methyl(phenyl)carbamoyl)oxy)prop-1-yn-1-yl)xanthine] | > 5%
